In patent publication US9550752B2, “Triazolinthione derivatives” (priority 2013, dated 2017) one finds chromatographic logP, biological efficacy and LogP data, which are given here for 78 molecules.

Marks after values point to notes of the source that are not given here.

Test system in one series: not listed separately
Nature of the series: physchem. The settings on record: pH 2.7.
As to `O=C(Cc1cccnc1Cl)C1(Cl)CC1` [Example V-3, 1-(1-chlorocyclopropyl)-2-(2-chloropyridin-3-yl)ethanone], the chromatographic logP was 2.2.

The same series, now with this note: pH 7.8.
`O=C(Cc1cccnc1Cl)C1(Cl)CC1` [Example V-3, 1-(1-chlorocyclopropyl)-2-(2-chloropyridin-3-yl)ethanone] showed a chromatographic logP of 2.21.

Staying with this series, now noted: reversed phase HPLC column, pH 2.7.
For `OC(Cc1ccncc1Cl)(Cn1cncn1)C1(Cl)CC1` (centres unmarked) [XXI-5, 2-(1-chlorocyclopropyl)-1-(3-chloropyridin-4-yl)-3-(1H-1,2,4-triazol-1-yl)propan-2-ol], the chromatographic logP was determined as 1.67.

In turn, `OC(Cc1ccncc1Cl)(Cn1nc[nH]c1=S)C1(Cl)CC1` (centres unmarked) [Example I-3, 2-[2-(1-chlorocyclopropyl)-3-(3-chloropyridin-4-yl)-2-hydroxypropyl]-2,4-dihydro-3H-1,2,4-triazole-3-thione] registered a chromatographic logP of 2.01.

Staying with this series, now noted: reversed phase HPLC column, pH 7.8.
The molecule `OC(Cc1ccncc1Cl)(Cn1cncn1)C1(Cl)CC1` (centres unmarked) [XXI-5, 2-(1-chlorocyclopropyl)-1-(3-chloropyridin-4-yl)-3-(1H-1,2,4-triazol-1-yl)propan-2-ol] had a chromatographic logP of 1.75.

A further series deals with Pyricularia oryzae.
Assay: not given
The settings on record: 500 ppm of active ingredient; rice, preventive; evaluated 8 days after inoculation. The format is in vivo.
Regarding `OC(Cc1cccnc1Cl)(Cn1ncnc1S)C1(F)CC1` (centres unmarked) [Example I-11], the biological efficacy is recorded as ≥ 90%.

Test system in a further series: not given
Assay: not given
The following applies: method [a]: pH 2.7, 0.1% formic acid in water/acetonitrile; Table 2, formula (XXI).
As to `OC(Cc1ccncc1Cl)(Cn1cncn1)c1ccc2oc3ccccc3c2c1` (centres unmarked) [XXI-85], the LogP was 2.40^[a].

The same series, now with this note: method [a]: pH 2.7; Table 3, formula (V).
`CCC(C)(CC)C(=O)Cc1ccncc1Cl` [Example V-17]: the LogP is 3.04^[a].

`CC(C)(C)C(=O)Cc1ccncc1` [Example V-20] displayed a lipophilicity (LogP) of 0.35.

Regarding `CC(C)(C)C(=O)Cc1ncc(Cl)cc1Cl` [Example V-13], the LogP is 3.33^[a].

As for `CC(C)(C)C(=O)Cc1ccc(Cl)nc1` [Example V-15], the LogP is 2.47^[a].

Still in this series, the particulars now being: method [a]: pH 2.7; Table 4, formula (XII).
Turning to `CC(C)(C)C1(Cc2ncc(Cl)cc2Cl)CO1` (centres unmarked) [XII-6], the log partition coefficient (LogP) is 4.06^[a].

Take `CCC(C)(C)C1(Cc2ccnc(Cl)c2)CO1` (centres unmarked) [XII-18]: the LogP was 3.51^[a].

Turning to `CC(C)(C)C1(Cc2ccncc2Cl)CO1` (centres unmarked) [XII-10], the lipophilicity (LogP) is 2.80^[a].

Turning to `CC(C)(C)C1(Cc2cc(F)ncc2Cl)CO1` (centres unmarked) [XII-38], the LogP was 3.65^[a].

`CC(C)(C)C1(Cc2cccnc2Cl)CO1` (centres unmarked) [XII-9] had a LogP of 2.97.

As to `CC(C)C(C)(C)C1(Cc2cc(Cl)ncc2F)CO1` (centres unmarked) [XII-24], the LogP was 4.34^[a].

As to `CC(C)C(C)(C)C1(Cc2ccncc2Cl)CO1` (centres unmarked) [XII-30], the log partition coefficient (LogP) is 3.75^[a].

With `CCC(C)(C)C1(Cc2cc(Cl)ncc2F)CO1` (centres unmarked) [XII-27], the LogP was 3.89^[a].

Turning to `CCC(C)(C)C1(Cc2c(Cl)cncc2Cl)CO1` (centres unmarked) [XII-54], the LogP was 4.41^[a].

Take `CC(C)(C)C1(Cc2ccnc(Cl)c2)CO1` (centres unmarked) [XII-22]: the LogP was 3.06^[a].

Take `CC(C)(C)C1(Cc2cnc3ccccc3c2)CO1` (centres unmarked) [XII-7]: the LogP is 1.86^[a].

On to `CCC(C)(C)C1(Cc2cc(F)ncc2Cl)CO1` (centres unmarked) [XII-40], for which the lipophilicity (LogP) is 4.17^[a].

Regarding `CCCC(C)(C)C1(Cc2ccncc2Cl)CO1` (centres unmarked) [XII-57], the LogP was 2.03^[a].

The same series, now with this note: method [b]: pH 7.8; Table 3, formula (V).
Regarding `CC(C)(C)C(=O)Cc1ccncc1` [Example V-20], the LogP is reported as 1.75.

Staying with this series, now noted: method [b]: pH 7.8; Table 4, formula (XII).
For `CC(C)(C)C1(Cc2cccnc2Cl)CO1` (centres unmarked) [XII-9], the LogP stood at 2.96.

The same series, now with this note: pH 2.7.
With `OC(Cc1ccncc1C(F)(F)F)(Cn1cncn1)C1(Cl)CC1` (centres unmarked) [XXI-86], the LogP was 2.08^[a].

For `OC(Cc1cccc(Cl)c1)(Cc1ccnc(Cl)c1)Cn1cncn1` (racemic) [XXI-42], the LogP was 2.42^[a].

As to `OC(Cc1cc(Cl)ncc1F)(Cn1cncn1)c1ccc(Cl)nc1` (racemic) [XXI-47], the LogP was 1.60^[a].

In the case of `CC(C)(C)C(O)(Cc1c(Cl)cncc1Cl)Cn1cncn1` (racemic) [XXI-125], the LogP is 2.34^[a].

As for `CC(CF)(CF)C(O)(Cc1ccncc1F)Cn1ncnc1S` (centres unmarked) [Example I-22], the LogP was 1.58^[a].

In the case of `OC(Cc1cc(F)ncc1Cl)(Cn1cncn1)C1(Cl)CC1` (centres unmarked) [XXI-94], the LogP is 2.30^[a].

Regarding `OC(Cc1cccnc1Cl)(Cn1ncnc1S)C1(Cl)CC1` (centres unmarked) [Example I-4], the LogP was 2.15^[a].

On to `CC(C)(C)C(O)(Cc1cnc2ccccc2c1)Cn1ncnc1S` (centres unmarked) [Example I-5], for which the LogP is 1.58^[a].

For the molecule `CC(C)(C)C(O)(Cc1cnc2ccccc2c1)Cn1cncn1` (centres unmarked) [XXI-8], the LogP is 1.18^[a].

Consider `Cc1cccc(CC(O)(Cn2cncn2)C(C)(C)C)n1` (racemic) [XXI-120], for which the LogP was 0.63^[a].

As for `COc1nccnc1CC(O)(Cn1cncn1)C1(Cl)CC1` (centres unmarked) [XXI-77], the lipophilicity (LogP) was 1.88^[a].

As for `CC(CF)(CF)C(O)(Cc1ccnc(Cl)c1F)Cn1cncn1` (racemic) [XXI-66], the LogP was 1.87^[a].

Take `CC(C)(F)C(O)(Cc1ccncc1Cl)Cn1cncn1` (centres unmarked) [XXI-81]: the LogP is 1.20^[a].

Take `OC(Cc1nccnc1Br)(Cn1cncn1)C1(Cl)CC1` (centres unmarked) [XXI-76]: the LogP was 1.96^[a].

Regarding `CC1(C(O)(Cc2cccnc2Cl)Cn2ncnc2S)CC1` (centres unmarked) [Example I-15], the LogP is 2.14^[a].

In the case of `CC(C)(C)C(O)(Cc1cc(Cl)ncc1F)Cn1cncn1` (racemic) [XXI-113], the LogP is 2.16^[a].

With `OC(Cc1ccc(Cl)cn1)(Cn1cncn1)C1(Cl)CC1` (centres unmarked) [XXI-72], the LogP was 2.23^[a].

On to `OC(Cc1ccccc1F)(Cc1cc(Cl)ncc1F)Cn1cncn1` (centres unmarked) [XXI-78], for which the LogP is 2.34^[a].

Regarding `OC(Cc1ccncc1Cl)(Cn1cncn1)C1(c2ccccc2)CC1` (centres unmarked) [XXI-83], the LogP was 2.23^[a].

In the case of `OC(Cc1ccncc1Cl)(CC1CC1)Cn1cncn1` (racemic) [XXI-127], the lipophilicity (LogP) was 1.43^[a].

`OC(Cc1ccncc1F)(Cn1ncnc1S)C1(Cl)CC1` (centres unmarked) [Example I-19]: the LogP is 1.65^[a].

`CC1(C(O)(Cc2ccncc2Cl)Cn2ncnc2S)CC1` (centres unmarked) [Example I-16]: the LogP was 1.96^[a].

Take `OC(Cc1cc(Cl)ncc1Cl)(Cn1cncn1)C1(Cl)CC1` (racemic) [XXI-63]: the LogP was 2.53^[a].

Turning to `CC(C)(Oc1ccc(F)cc1)C(O)(Cc1ccncc1Cl)Cn1cncn1` (centres unmarked) [XXI-96], the LogP was 2.48^[a].

Consider `OC(CCc1ccccc1Cl)(Cc1ccncc1Cl)Cn1cncn1` (centres unmarked) [XXI-73], for which the LogP was 2.29^[a].

For `Cc1ccnc(CC(O)(Cn2cncn2)C2(Cl)CC2)c1` (racemic) [XXI-57], the lipophilicity (LogP) is 0.52^[a].

As for `OC(Cc1ccnc(Cl)c1F)(Cn1cncn1)c1ccc(Cl)nc1` (centres unmarked) [XXI-91], the LogP was 1.23^[a].

For `CC(C)(CCl)C(O)(Cc1ccncc1Cl)Cn1cncn1` (centres unmarked) [XXI-95], the LogP was 1.76^[a].

For the molecule `OC(Cc1ncc(Cl)cc1Cl)(Cn1cncn1)C1(Cl)CC1` (racemic) [XXI-102], the LogP was 2.88^[a].

For the molecule `OC(Cc1ccnc(Cl)c1F)(Cn1cncn1)C1(F)CC1` (centres unmarked) [XXI-92], the log partition coefficient (LogP) is 1.23^[a].

Turning to `OC(COc1ccc(F)cc1)(Cc1ccncc1Cl)Cn1cncn1` (centres unmarked) [XXI-84], the LogP is 1.86^[a].

Consider `OC(Cc1cc(Cl)cnc1Cl)(Cn1cncn1)C1(Cl)CC1` (centres unmarked) [XXI-88], for which the LogP was 2.53^[a].

`OC(Cc1ccccc1F)(Cc1ccnc(Cl)c1F)Cn1cncn1` (centres unmarked) [XXI-90]: the LogP was 1.73^[a].

As for `OC(Cc1cc(Oc2ccc(Cl)cc2)nnc1Cl)(Cn1cncn1)C1(Cl)CC1` (racemic) [XXI-60], the LogP was 3.08^[a].

As for `CC(C)(C)C(O)(Cc1ccncc1F)Cn1cncn1` (racemic) [XXI-103], the LogP is 1.41^[a].

Turning to `OC(Cc1ccncc1Cl)(Cn1cncn1)C1CCC1` (centres unmarked) [XXI-82], the LogP is 1.46^[a].

For the molecule `OC(Cc1ccncn1)(Cn1cncn1)C1(Cl)CC1` (racemic) [XXI-55], the lipophilicity (LogP) was 1.10^[a].

Regarding `CC(C)(C)C(O)(Cc1cc(Cl)ccn1)Cn1cncn1` (racemic) [XXI-119], the LogP is 1.87^[a].

As to `OC(Cc1cc(Cl)ncc1F)(Cn1cncn1)C1(Cl)CC1` (racemic) [XXI-45], the LogP is 2.06^[a].

With `CC(C)(C)C(O)(Cc1ccc2ccccc2n1)Cn1cncn1` (racemic) [XXI-105], the LogP is 1.51^[a].

Regarding `Cc1cccc(CC(O)(Cn2cncn2)C2(Cl)CC2)n1` (racemic) [XXI-53], the LogP was 0.52^[a].

Turning to `CCC(C)(C)C(O)(Cc1ccncc1Cl)Cn1cncn1` (centres unmarked) [XXI-12], the LogP is 2.13^[a].

For the molecule `Cc1cccc2cc(CC(O)(Cn3cncn3)C3(Cl)CC3)c(Cl)nc12` (centres unmarked) [XXI-89], the LogP was 3.53^[a].

`OC(CCc1ccc(Cl)cc1)(Cc1ccncc1Cl)Cn1cncn1` (centres unmarked) [XXI-74]: the LogP is 2.40^[a].

As to `CC(C)(C)C(O)(Cc1nccnc1Cl)Cn1cncn1` (racemic) [XXI-115], the LogP is 2.01^[a].

Consider `OC(Cc1ccc(Cl)nc1Cl)(Cn1cncn1)C1(Cl)CC1` (racemic) [XXI-58], for which the LogP is 2.55^[a].

With `OC(Cc1ccncc1F)(Cn1ncnc1S)C1(F)CC1` (centres unmarked) [Example I-21], the lipophilicity (LogP) is 1.29^[a].

On to `OC(Cc1cc(Cl)nnc1Cl)(Cn1cncn1)C1(Cl)CC1` (racemic) [XXI-51], for which the LogP is 1.92^[a].

Consider `COC(C)(C)C(O)(Cc1ccncc1Cl)Cn1cncn1` (racemic) [XXI-123], for which the LogP was 1.48^[a].

In the case of `Cc1ncc(CC(O)(Cn2cncn2)C(C)(C)C)nc1Cl` (racemic) [XXI-116], the LogP is 2.10^[a].

`OC(Cc1ccnc(Cl)c1Cl)(Cn1cncn1)C1(Cl)CC1` (centres unmarked) [XXI-87]: the LogP was 2.39^[a].

As to `OC(Cc1cccc(Cl)c1)(Cc1cc(Cl)ncc1F)Cn1cncn1` (centres unmarked) [XXI-79], the LogP is 2.69^[a].

`CCOC(C)(C)C(O)(Cc1ccncc1Cl)Cn1cncn1` (racemic) [XXI-129]: the LogP is 1.90^[a].

Turning to `CC(C)(C)C(O)(Cc1ccnc2ccccc12)Cn1ncnc1S` (centres unmarked) [Example I-9], the LogP was 1.59^[a].

In the case of `CCC(C)(C)C(O)(Cc1ccnc(Cl)c1)Cn1cncn1` (racemic) [XXI-111], the lipophilicity (LogP) was 2.27^[a].

Take `OC(Cc1cccnc1Cl)(Cn1ncnc1S)C1(F)CC1` (centres unmarked) [Example I-11]: the LogP was 1.76^[a].

For the molecule `CC(C)(C)C(O)(Cc1cnccn1)Cn1cncn1` (racemic) [XXI-118], the LogP was 1.39^[a].

The series is the same for the next values; noted with them: pH 7.8.
For the molecule `CC(C)(Oc1ccc(F)cc1)C(O)(Cc1ccncc1Cl)Cn1cncn1` (centres unmarked) [XXI-96], the log partition coefficient (LogP) is 2.60^[b];.

For `CC(C)(CCl)C(O)(Cc1ccncc1Cl)Cn1cncn1` (centres unmarked) [XXI-95], the log partition coefficient (LogP) is 1.96^[b];.

On to `CCOC(C)(C)C(O)(Cc1ccncc1Cl)Cn1cncn1` (racemic) [XXI-129], for which the LogP is 2.04^[b];.

What is called chromatographic logP is a lipophilicity value derived from retention on a column. Low readings indicate a more hydrophilic compound, high ones a more lipophilic compound. The term LogP denotes a log measure of how a compound divides between an organic and an aqueous phase. Read a low LogP as lower lipophilicity.
